In paper PMC3030271 (ACS medicinal chemistry letters, 2010):

How the values were obtained:
Assay type in all cases: cell-based
hA3AR = molecular target: T1, hA3AR (Homo sapiens, UniProt P0DMS8); experiment: Cyclic AMP functional assay at the hA3AR expressed in CHO cells
T1 sequence (P0DMS8 1-318): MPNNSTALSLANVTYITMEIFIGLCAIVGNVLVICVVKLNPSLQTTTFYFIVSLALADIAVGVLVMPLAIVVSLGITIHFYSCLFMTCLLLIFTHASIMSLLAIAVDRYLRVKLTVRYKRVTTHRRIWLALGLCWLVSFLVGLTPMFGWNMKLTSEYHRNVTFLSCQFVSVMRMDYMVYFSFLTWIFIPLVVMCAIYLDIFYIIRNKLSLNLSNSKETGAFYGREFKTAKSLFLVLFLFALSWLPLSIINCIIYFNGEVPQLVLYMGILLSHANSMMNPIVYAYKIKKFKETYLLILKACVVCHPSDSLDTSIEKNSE

hA2BAR = molecular target: T2, hA2BAR (Homo sapiens, UniProt P29275); experiment: Cyclic AMP accumulation at the hA2BAR expressed in CHO cells
T2 sequence (P29275 1-332): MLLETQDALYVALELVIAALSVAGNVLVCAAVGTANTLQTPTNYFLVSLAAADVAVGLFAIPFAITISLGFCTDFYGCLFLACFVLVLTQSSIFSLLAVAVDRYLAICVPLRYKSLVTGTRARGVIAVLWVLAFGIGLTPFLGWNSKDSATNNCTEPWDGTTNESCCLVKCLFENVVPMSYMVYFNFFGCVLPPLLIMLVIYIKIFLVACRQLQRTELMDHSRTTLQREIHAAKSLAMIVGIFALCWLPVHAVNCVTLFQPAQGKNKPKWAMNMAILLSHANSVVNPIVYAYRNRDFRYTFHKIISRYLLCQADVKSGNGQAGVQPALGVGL

hA2AAR = hA2AAR (Homo sapiens, UniProt P29274); experiment: Cyclic AMP functional assay at the hA2AAR expressed in CHO cells; details: compared to the standard CGS21680
Sequence of hA2AAR (P29274 whole entry): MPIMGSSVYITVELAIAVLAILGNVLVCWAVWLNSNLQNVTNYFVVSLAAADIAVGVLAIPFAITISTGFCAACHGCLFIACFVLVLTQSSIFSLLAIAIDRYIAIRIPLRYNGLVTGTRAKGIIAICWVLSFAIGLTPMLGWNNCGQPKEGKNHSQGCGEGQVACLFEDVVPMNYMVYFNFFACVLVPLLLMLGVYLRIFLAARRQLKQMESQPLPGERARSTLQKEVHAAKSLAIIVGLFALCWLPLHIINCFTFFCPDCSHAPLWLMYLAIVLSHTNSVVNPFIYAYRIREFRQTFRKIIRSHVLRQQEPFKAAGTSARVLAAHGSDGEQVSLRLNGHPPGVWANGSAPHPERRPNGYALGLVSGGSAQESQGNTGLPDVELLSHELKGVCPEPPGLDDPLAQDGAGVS

Functional behaviour at the hA3AR (cyclic AMP assay) (hA3AR)	Functional behaviour at the hA2BAR (cyclic AMP accumulation) (hA2BAR)	Functional behaviour at the hA2AAR (cyclic AMP assay) (hA2AAR)	SMILES
potent and full antagonists	weak partial agonist	full agonist	CCCCC#Cc1nc(N)c2ncn([C@@H]3SC[C@@H](O)[C@H]3O)c2n1 [Compound 4a]
potent and full antagonists			CCCC/C=C/c1nc(N)c2ncn([C@@H]3SC[C@@H](O)[C@H]3O)c2n1 [Compound 4b]
